Reference: patent publication US10869871B2, “Compositions and methods of modulating short-chain dehydrogenase activity” (CASE WESTERN RESERVE UNIVERSITY, priority 2013, dated 2020)

Columns and labels:
[1] = Hepatocyte stability; assay type: in vitro ADME; settings: compound in presence of hepatocytes in culture; in words
Protocol: Time to inhibition refers to the time needed to inhibit the generation of NADH by 15-PGDH from the moment with drug is added into the reaction mix. Delta Tm refers to the shift in melting temperature of recombinant 15-PGDH in the presence of drug (with cofactor NADH also present). Concentration of Full Cell Line Reporter Induction refers to the concentration of drug that needs to be added to reporter cell line to achieve maximal induction of the 15-PGDH-luciferase gene fusion reporter cassette, as measured by luciferase assays. Hepatocyte stability refers to the half-life of compound in the presence of hepatocytes in culture. Toxicity refers to the concentration of compound needed to decrease cell numbers in a cell culture assay.

[2] = Survival after acetaminophen (Tylenol) LD50 dose 600 mg/kg IP; assay type: in vivo, mouse; settings: for number of mice surviving: first dose immediately after Tylenol injection;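 as to all read-outs here: controls were mice given only vehicle, dosed once or twice per day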
[3] = Survival of 11Gy irradiated C57BL/6J mice receiving bone marrow allograft; assay type: in vivo, mouse; settings: 5 mg/kg IP bid
Excerpt: The experimental design is depicted in FIG. 50.
Under the conditions of the mouse colony during this study, control mice receiving 100,000-500,000 cells are all dead between days 4-13 of study. […] Such activity would be of particular utility in settings, such as transplantation with umbilical cord stem cells, in which donor cell numbers are limited.

CCCC[S+]([O-])c1sc2nc(-c3cccs3)cc(-c3ccccc3)c2c1N (stereo not drawn) [SW033291, 2-(butylsulfinyl)-4-phenyl-6-(thiophen-2-yl)thieno[2,3-b]pyridin-3-amine]
3: Survival (number of mice) ([2]; 5 mg/kg IP bid from 3 hours prior to acetaminophen, 6 doses, cohort of 6, 48 hrs) | Survival (number of mice) ([2]; 5 mg/kg IP bid from 3 hours prior to acetaminophen, 6 doses, cohort of 6, 64 hrs) | Survival (number of mice) ([2]; 5 mg/kg IP bid from 3 hours prior to acetaminophen, 6 doses, cohort of 6, 72 hrs) | Survival (number of mice) ([2]; 5 mg/kg IP bid from 3 hours prior to acetaminophen, 6 doses, cohort of 6, 88 hr) | Survival (number of mice) ([2]; 5 mg/kg IP bid from 3 hours prior to acetaminophen, 6 doses, cohort of 6, 96 hr) | Survival (number of mice) ([2]; 5 mg/kg IP bid from 3 hours prior to acetaminophen, 6 doses, cohort of 6, 112 hr) | Survival (number of mice) ([2]; 5 mg/kg IP bid from 3 hours prior to acetaminophen, 6 doses, cohort of 6, 120 hr) | number of mice surviving ([2]; 2 dose daily, cohort of 6, 48 hrs) | number of mice surviving ([2]; 2 dose daily, cohort of 6, 64 hrs) | number of mice surviving ([2]; 2 dose daily, cohort of 6, 72 hrs) | number of mice surviving ([2]; 2 dose daily, cohort of 6, 88 hr) | number of mice surviving ([2]; 2 dose daily, cohort of 6, 96 hr) | number of mice surviving ([2]; 2 dose daily, cohort of 6, 112 hr) | number of mice surviving ([2]; 2 dose daily, cohort of 6, 120 hr) | number of surviving mice ([3]; 1 × 10^5 donor cells, Day 0) | number of surviving mice ([3]; 1 × 10^5 donor cells, Day 1) | number of surviving mice ([3]; 1 × 10^5 donor cells, Day 2) | number of surviving mice ([3]; 1 × 10^5 donor cells, Day 3) | number of surviving mice ([3]; 2 × 10^5 donor cells, Day 0) | number of surviving mice ([3]; 2 × 10^5 donor cells, Day 1) | number of surviving mice ([3]; 2 × 10^5 donor cells, Day 2) | number of surviving mice ([3]; 2 × 10^5 donor cells, Day 3) | number of surviving mice ([3]; 2 × 10^5 donor cells, Day 4) | number of surviving mice ([3]; 2 × 10^5 donor cells, Day 5) | number of surviving mice ([3]; 5 × 10^5 donor cells, Day 0) | number of surviving mice ([3]; 5 × 10^5 donor cells, Day 1) | number of surviving mice ([3]; 5 × 10^5 donor cells, Day 2) | number of surviving mice ([3]; 5 × 10^5 donor cells, Day 3) | number of surviving mice ([3]; 5 × 10^5 donor cells, Day 4) | number of surviving mice ([3]; 5 × 10^5 donor cells, Day 5) | number of surviving mice ([3]; 5 × 10^5 donor cells, Day 6) | number of surviving mice ([3]; 5 × 10^5 donor cells, Day 7)
2: number of surviving mice ([3]; 1 × 10^5 donor cells, Day 4) | number of surviving mice ([3]; 2 × 10^5 donor cells, Day 6) | number of surviving mice ([3]; 2 × 10^5 donor cells, Day 7) | number of surviving mice ([3]; 2 × 10^5 donor cells, Day 8) | number of surviving mice ([3]; 2 × 10^5 donor cells, Day 9) | number of surviving mice ([3]; 2 × 10^5 donor cells, Day 10) | number of surviving mice ([3]; 2 × 10^5 donor cells, Day 11) | number of surviving mice ([3]; 5 × 10^5 donor cells, Day 8)
6: Survival (number of mice) ([2]; 5 mg/kg IP bid from 3 hours prior to acetaminophen, 6 doses, cohort of 6, 0 hrs) | Survival (number of mice) ([2]; 5 mg/kg IP bid from 3 hours prior to acetaminophen, 6 doses, cohort of 6, 16 hr) | number of mice surviving ([2]; 1 dose daily, cohort of 6, 0 hrs) | number of mice surviving ([2]; 1 dose daily, cohort of 6, 16 hr) | number of mice surviving ([2]; 1 dose daily, cohort of 6, 24 hrs) | number of mice surviving ([2]; 2 dose daily, cohort of 6, 0 hrs) | number of mice surviving ([2]; 2 dose daily, cohort of 6, 16 hr) | number of mice surviving ([2]; 2 dose daily, cohort of 6, 24 hrs)
0: number of surviving mice ([3]; 1 × 10^5 donor cells, Day 6) | number of surviving mice ([3]; 2 × 10^5 donor cells, Day 13)
12: Survival (number of mice) ([2]; 5 mg/kg IP bid from 48 hours prior to acetaminophen, 9 doses, cohort of 12, 0 hrs) | Survival (number of mice) ([2]; 5 mg/kg IP bid from 48 hours prior to acetaminophen, 9 doses, cohort of 12, 16 hr) | Survival (number of mice) ([2]; 5 mg/kg IP bid from 48 hours prior to acetaminophen, 9 doses, cohort of 12, 24 hrs)
5: Survival (number of mice) ([2]; 5 mg/kg IP bid from 3 hours prior to acetaminophen, 6 doses, cohort of 6, 24 hrs)
Stable > couple hrs: Hepatocyte stability [1]
11: Survival (number of mice) ([2]; 5 mg/kg IP bid from 48 hours prior to acetaminophen, 9 doses, cohort of 12, 40 hrs)
1: number of surviving mice ([3]; 1 × 10^5 donor cells, Day 5) | number of surviving mice ([3]; 2 × 10^5 donor cells, Day 12)
No difference: survival versus control ([2]; 5 mg/kg IP beginning immediately following acetaminophen, once or twice daily, through 120 hours)
10: Survival (number of mice) ([2]; 5 mg/kg IP bid from 48 hours prior to acetaminophen, 9 doses, cohort of 12, 48 hrs) | Survival (number of mice) ([2]; 5 mg/kg IP bid from 48 hours prior to acetaminophen, 9 doses, cohort of 12, 64 hrs) | Survival (number of mice) ([2]; 5 mg/kg IP bid from 48 hours prior to acetaminophen, 9 doses, cohort of 12, 72 hrs) | Survival (number of mice) ([2]; 5 mg/kg IP bid from 48 hours prior to acetaminophen, 9 doses, cohort of 12, 88 hr) | Survival (number of mice) ([2]; 5 mg/kg IP bid from 48 hours prior to acetaminophen, 9 doses, cohort of 12, 96 hr) | Survival (number of mice) ([2]; 5 mg/kg IP bid from 48 hours prior to acetaminophen, 9 doses, cohort of 12, 112 hr) | Survival (number of mice) ([2]; 5 mg/kg IP bid from 48 hours prior to acetaminophen, 9 doses, cohort of 12, 120 hr)
